Test [1] deals with BTK kinase (Homo sapiens, UniProt Q06187). Description: BTK kinase inhibitory activity (QSS Assist BTK_MSA kit). Type of test: biochemical. Particulars: 30 min preincubation, ATP 1 mM, concentration as compound A free form. The protocol: The BTK kinase inhibitory activity was evaluated using QSS Assist BTK_MSA kit (Carna Bioscience).
The test compound B was dissolved in dimethyl sulfoxide (DMSO) to prepare a solution at a 100-fold concentration as compared to the final concentration. The solution was also 25-fold diluted with an appurtenant assay buffer to obtain a test compound B solution. In addition, BTK kinase appurtenant to the kit was used for the reaction.
(§1) 5 μL of the test compound B solution at a 4-fold concentration, prepared using the aforementioned assay buffer, and 10 μL of a BTK kinase solution at a 2-fold concentration were mixed within a well of a 384 well plate, and left to undergo a reaction at room temperature for 30 minutes. Continuously, 5 μL of a substrate peptide/ATP/MgCl2 solution at a 4-fold concentration was added thereto to perform the reaction at room temperature for 1 hour. The substrate peptide was used at a final concentration of 1000 nM, ATP at a final concentration of 1 mM, and MgCl2 at a final concentration of 5 mM. Thereafter, 60 μL of an appurtenant termination buffer was added thereto to stop the reaction. The BTK kinase activity was calculated by quantifying a product conversion ratio obtained from the substrate peptide peak height and the product (phosphorylated substrate peptide) peak height with LabChip EZ Reader II (PerkinElmer). […]

For test [2], the target named is T1, JAK3 kinase (Homo sapiens, UniProt P52333).
T1 construct: purchased Carna Bioscience QSS Assist JAK3_MSA kit
T1 sequence (P52333 1-1124): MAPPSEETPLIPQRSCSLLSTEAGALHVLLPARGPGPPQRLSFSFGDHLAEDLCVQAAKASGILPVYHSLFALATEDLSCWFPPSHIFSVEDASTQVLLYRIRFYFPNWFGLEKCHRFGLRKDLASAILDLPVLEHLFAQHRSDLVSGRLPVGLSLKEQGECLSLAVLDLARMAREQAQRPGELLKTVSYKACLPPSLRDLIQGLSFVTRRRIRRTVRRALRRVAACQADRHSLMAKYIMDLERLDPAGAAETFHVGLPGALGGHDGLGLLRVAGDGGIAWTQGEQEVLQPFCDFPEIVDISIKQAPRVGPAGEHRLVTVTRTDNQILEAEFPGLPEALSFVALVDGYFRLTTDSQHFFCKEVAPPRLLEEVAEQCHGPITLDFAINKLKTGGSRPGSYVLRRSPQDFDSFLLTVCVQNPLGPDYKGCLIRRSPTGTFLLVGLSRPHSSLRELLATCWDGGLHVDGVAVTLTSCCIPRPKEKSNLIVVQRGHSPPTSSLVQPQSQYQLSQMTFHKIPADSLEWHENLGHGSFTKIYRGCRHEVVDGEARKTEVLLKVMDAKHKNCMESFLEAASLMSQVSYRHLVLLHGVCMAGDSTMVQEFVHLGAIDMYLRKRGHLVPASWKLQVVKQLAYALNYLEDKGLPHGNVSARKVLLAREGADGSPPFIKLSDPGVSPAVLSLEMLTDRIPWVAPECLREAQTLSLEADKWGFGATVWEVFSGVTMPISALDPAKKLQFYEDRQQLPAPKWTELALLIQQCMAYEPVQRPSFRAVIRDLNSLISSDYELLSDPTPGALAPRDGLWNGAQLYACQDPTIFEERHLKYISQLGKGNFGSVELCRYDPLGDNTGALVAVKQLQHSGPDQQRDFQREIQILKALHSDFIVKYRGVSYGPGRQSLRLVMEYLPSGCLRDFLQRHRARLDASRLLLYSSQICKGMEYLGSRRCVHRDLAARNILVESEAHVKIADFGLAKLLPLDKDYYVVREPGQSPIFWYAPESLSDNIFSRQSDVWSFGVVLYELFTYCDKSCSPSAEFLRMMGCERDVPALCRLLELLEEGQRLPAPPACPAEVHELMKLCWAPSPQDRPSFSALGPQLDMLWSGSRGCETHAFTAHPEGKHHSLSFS
Description: JAK3 kinase inhibitory activity (QSS Assist JAK3_MSA kit). Type of test: biochemical. Particulars: 30 min preincubation, ATP 1 mM. How it is done: The JAK3 kinase inhibitory activity was evaluated using QSS Assist JAK3_MSA kit (Carna Bioscience).
The test compound B was dissolved in dimethyl sulfoxide (DMSO) to prepare a solution at a 100-fold concentration as compared to the test concentration. The solution was also 25-fold diluted with an appurtenant assay buffer to obtain a test compound B solution. In addition, JAK3 kinase appurtenant to the kit was used for the reaction.
as §1, with “JAK3” for “BTK”, “incubated” for “left to undergo a reaction”, “1 μM,” for “1000 nM,”

For test [3], the system named is human diffuse large B-cell lymphoma cell line OCI-Ly10 cells. Description: Proliferation inhibition, OCI-Ly10 cells (CellTiter-Glo). Type of test: cell-based. Particulars: OCI-Ly10, 72 h, 3 days culture, 100% inhibition = value on day of cell seeding. How it is done:
OCI-Ly10 is a cell line originated from human diffuse large B-cell lymphoma, which is a B-cell malignant neoplasm, and the BTK dependency has been confirmed (Nature. 2010; 463:88-92). The human diffuse large B-cell lymphoma cell line OCI-Ly 10 cells (University Health Network) cultured in an Iscove's Modified Dulbecco's Medium (Sigma) containing a 20% bovine serum were seeded into 96 well plates. On the same day, DMSO solutions of the test compound B at a final concentrations from 0.1 nM to 1 μM or only DMSO (DMSO group) were added thereto to culture the cells at 37° C. in 5% CO2 for 3 days. Thereafter, the cell number was measured using a cell counting reagent (CellTiter-Glo (registered trademark) Luminescent Cell Viability Assay (Promega)). The cell proliferation inhibition rate was calculated by the measured value in the DMSO group set as 0% inhibition and the measured value in the DMSO group on day of cell seeding set as 100% inhibition.
(In ATP-based viability assays light output follows the ATP content of the culture.)

Sequence of BTK kinase (Q06187 whole entry): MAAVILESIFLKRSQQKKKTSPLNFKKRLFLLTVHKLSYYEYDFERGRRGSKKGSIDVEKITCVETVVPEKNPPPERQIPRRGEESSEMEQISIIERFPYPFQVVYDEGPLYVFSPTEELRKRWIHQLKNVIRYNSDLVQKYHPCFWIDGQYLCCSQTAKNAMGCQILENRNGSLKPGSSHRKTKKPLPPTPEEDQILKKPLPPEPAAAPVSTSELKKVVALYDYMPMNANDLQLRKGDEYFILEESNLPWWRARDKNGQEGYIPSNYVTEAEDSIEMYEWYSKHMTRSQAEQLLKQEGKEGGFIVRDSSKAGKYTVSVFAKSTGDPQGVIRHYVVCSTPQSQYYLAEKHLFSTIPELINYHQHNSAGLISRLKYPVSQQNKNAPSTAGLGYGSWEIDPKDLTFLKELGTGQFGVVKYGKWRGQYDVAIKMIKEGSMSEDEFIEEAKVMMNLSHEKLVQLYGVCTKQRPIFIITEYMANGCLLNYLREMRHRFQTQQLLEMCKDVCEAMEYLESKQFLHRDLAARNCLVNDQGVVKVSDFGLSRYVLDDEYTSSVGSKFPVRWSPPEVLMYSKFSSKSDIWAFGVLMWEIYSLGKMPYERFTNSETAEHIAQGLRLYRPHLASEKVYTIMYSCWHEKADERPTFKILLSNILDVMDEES

For the compound `C=CC(=O)N1CC[C@@H](Oc2nc(Nc3ccc(N4CCC(N5CCN(C)CC5)CC4)cc3)c(C(N)=O)nc2CC)C1` [test compound B, 5-{[(3R)-1-acryloylpyrrolidin-3-yl]oxy}-6-ethyl-3-({4-[4-(4-methylpiperazin-1-yl)piperidin-1-yl]phenyl}amino)pyrazine-2-carboxamide monomethanesulfonate], the IC50 (in general, the concentration that inhibits the measured activity by half) in test [1] is 0.17 nM; in test [2] it was 0.44 nM. Moreover, in test [3], the GI50 (usually the concentration at which growth is held to half of that of the control) was 1 nM.
